The record followed here is patent publication US7888063B2, “Unnatural reactive amino acid genetic code additions” (The Scripps Research Institute, priority 2003, dated 2011).

Some results are limits rather than exact numbers.

In one experiment the test system is position 33 of hSOD. The experiment is described as follows: LC-MS/MS of tryptic peptide VY*GSIK of mutant hSOD: identity of the amino acid incorporated. Also on record: species or system Saccharomyces cerevisiae. Particulars: from the signal-to-noise ratio of the peptide spectra; hSOD position 33. The protocol:
The identity of the amino acid incorporated was determined by subjecting a tryptic digest of the mutant protein to liquid chromatography and tandem mass spectrometry. For example, for mass spectrometry protein bands were visualized by colloidal Coomassie stain. Gel bands corresponding to wild-type and mutant SOD were excised from polyacrylamide gels, sliced into 1.5-mm cubes, reduced and alkylated, then subjected to trypsin hydrolysis essentially as described. See, e.g., A. Shevchenko, et al., (1996), Analytical Chemistry 68, 850-858. Tryptic peptides containing the unnatural amino acid were analyzed by nanoflow reversed-phase HPLC/μESI/MS with an LCQ ion trap mass spectrometer. Liquid chromatography tandem mass spectrometry (LC-MS/MS) analysis was performed on a Finnigan LCQ Deca ion trap mass spectrometer (Thermo Finnigan) fitted with a Nanospray HPLC (Agilent 1100 series). See, e.g., FIG. 10, Panels A-H. […]
For example, the wild-type and mutant hSOD were purified using nickel affinity column and protein bands were visualized by colloidal Coomassie stain. […] Tryptic peptides containing the unnatural amino acid were analyzed by nanoflow reversed-phase HPLC/μESI/MS with an LCQ ion trap mass spectrometer. […]

In experiment [1] the test system is GAL4 responsive HIS3, URA3 and lacZ reporters in MaV203. As to the kind of experiment: Growth of selection strain MaV203:pGADGAL4(2TAG) harboring synthetase plasmids on selective media (-ura, -his + 3-AT, 5-FOA, X-GAL). Format: cell-based, Saccharomyces cerevisiae. Particulars: MaV203 containing pGADGAL4(T44TAG, R110TAG). The protocol:
S. cerevisiae strain MaV203, (Invitrogen) is MATα; leu2-3,112; trp1 109;his3 Δ200;ade2-101;cyh2^R;cyh1^R;GAL4 Δ; gal80 Δ; GAL1::lacZ; HIS3UASGAL1::HIS3@LYS2; SPAL10UASGAL1::URA3. Yeast media were purchased from Clontech, 5-FOA and X-GAL were from Invitrogen and 3-AT was from BIO 101. YPER (Yeast Protein Extraction Reagent) and ONPG were purchased from Pierce Chemicals. Plasmid transformations were performed by the PEG/Lithium actetate method (see, e.g., D. Burke, et al., (2000) Methods in Yeast Genetics. Cold Spring Harbor Laboratory Press, Cold Spring Harbor, N.Y.) and transformants selected on the appropriate synthetic complete dropout media. To test the phenotypes conferred by various plasmid combinations on MaV203 yeast colonies from synthetic complete dropout plates of each transformation were resuspended in 15 μL of sterile water and streaked on the selective media of interest. […] The OD660 of 100 μL of cells, and several dilutions of cells were recorded in parallel in a 96 well microtiter plate. […] Upon color development, cells were pelleted by centrifugation, the supernatant transferred to a clean 96 well microtiter plate (Nunclon, cat.# 167008), and the A420 recorded. […] ONPG hydrolysis was calculated using the equation: beta-galactosidase units=[…]. […] Spectrophotometric readings were performed on a SPECTRAmax190 plate reader. […]

For `CC(=O)c1ccc(C[C@H](N)C(=O)O)cc1` [p-acetyl-L-phenylalanine], in the experiment with position 33 of hSOD, the incorporation purity is listed as at least 99.8%.

B1: EcTyrRS: Escherichia coli tyrosyl-tRNA synthetase, expressed with tRNACUA in yeast (protein, UniProt P0AGJ9 2-424, looked up)
Tyrosine--tRNA ligase: ASSNLIKQLQERGLVAQVTDEEALAERLAQGPIALYCGFDPTADSLHLGHLVPLLCLKRFQQAGHKPVALVGGATGLIGDPSFKAAERKLNTEETVQEWVDKIRKQVAPFLDFDCGENSAIAANNYDWFGNMNVLTFLRDIGKHFSVNQMINKEAVKQRLNREDQGISFTEFSYNLLQGYDFACLNKQYGVVLQIGGSDQWGNITSGIDLTRRLHQNQVFGLTVPLITKADGTKFGKTEGGAVWLDPKKTSPYKFYQFWINTADADVYRFLKFFTFMSIEEINALEEEDKNSGKAPRAQYVLAEQVTRLVHGEEGLQAAKRITECLFSGSLSALSEADFEQLAQDGVPMVEMEKGADLMQALVDSELQPSRGQARKTIASNAITINGEKQSDPEYFFKEEDRLFGRFTLLRRGKKNYCLICWK
Regarding B1, the “growth phenotype on 3-AT plates” value in experiment [1] is “grew robustly on plates with 3-AT concentrations up to 75 mM”.
